Here are results for eleven molecules from patent US20250214942A1, “INHIBITORS OF RECEPTOR INTERACTING PROTEIN KINASE I FOR THE TREATMENT OF DISEASE” (Board of Regents, The University of Texas System, priority 2019, published 2025).

Assay [1] has as its system human monocytic cell line U937. The assay can be described thus: Human U937 cellular necroptosis assay (TNFalpha + z-VAD-FMK, Cell Titer-Glo viability). The format is cell-based. Conditions: Homo sapiens, U-937, 22 h, U937 cells, 25 ng/mL human TNFalpha + 25 μM z-VAD-FMK, read-out: hU937 Avg IC50. Summed up: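 Readout is CellTiter-Glo 2.0 luminescence after 22 h at 37° C with compound, in cells triggered by human TNFalpha (25 ng/mL) and z-VAD-FMK (25 μM) in phenol red-free RPMI/10% FBS. Values are run-averaged IC50s from a four-parameter logistic curve.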

For assay [2], the target named is RIPK1 (Homo sapiens (Human), UniProt Q13546). The assay can be described thus: ADP-Glo kinase assay (RIPK1 activity, conversion of ATP to ADP). The format is biochemical. As to conditions: 5 nM RIPK1, 50 μM ATP, 6 h reaction; read-out: RIPK1 Enzyme Avg IC50. Summed up:
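RIPK1 (5 nM final) was preincubated 10 min at rt with 1:3-diluted compounds in HEPES pH 7.5/MgCl2/DTT/BSA/CHAPS buffer. ATP (50 μM final) was then added for 6 h, and ADP formed was read by ADP-Glo luminescence. IC50 values came from four-parameter logistic fitting.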

Chain of RIPK1 (Q13546 1-327): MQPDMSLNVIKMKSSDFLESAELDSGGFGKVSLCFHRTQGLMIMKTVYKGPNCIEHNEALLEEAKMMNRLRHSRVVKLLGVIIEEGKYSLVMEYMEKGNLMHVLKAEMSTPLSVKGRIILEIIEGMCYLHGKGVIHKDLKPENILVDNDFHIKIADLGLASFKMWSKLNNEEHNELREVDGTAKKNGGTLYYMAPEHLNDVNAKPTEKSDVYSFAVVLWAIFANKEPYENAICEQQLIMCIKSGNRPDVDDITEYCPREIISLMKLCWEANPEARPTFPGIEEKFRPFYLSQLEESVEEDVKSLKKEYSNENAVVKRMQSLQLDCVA

By IC50 is commonly meant the concentration that inhibits the measured activity by half. With `N#Cc1cncc(C2CC=NN2C(=O)C23CC(Cn4ncc5cc(C#N)ccc54)(C2)C3)c1` (stereo not shown) [Example 173, 1-((3-(5-(5-cyanopyridin-3-yl)-4,5-dihydro-1H-pyrazole-1-carbonyl)bicyclo[1.1.1]-pentan-1-yl)methyl)-1H-indazole-5-carbonitrile], the IC50 in assay [1] turned out to be 53 nM; in assay [2] it was 9.1 nM.

As to `O=C(N1N=CCC1c1cc(F)cc(F)c1)C12CC(CF)(C1)C2` (stereo not shown) [Example 5, (5-(3,5-Difluorophenyl)-4,5-dihydro-1H-pyrazol-1-yl)(3-(fluoromethyl)-bicyclo[1.1.1]pentan-1-yl)methanone], the IC50 was determined as 20 nM in assay [1] and 17 nM in assay [2].

Turning to `N#Cc1ccc2c(cnn2CC23CC(C(=O)N4N=CCC4c4cc(F)cc(F)c4)(C2)C3)c1` (stereo not shown) [Example 64, 1-((3-(5-(3,5-difluorophenyl)-4,5-dihydro-1H-pyrazole-1-carbonyl)bicyclo[1.1.1]-pentan-1-yl)methyl)-1H-indazole-5-carbonitrile], the figures for the IC50 in assay [1] and in assay [2] were 7 nM and 10 nM, respectively.

For `N#Cc1cnc2c(ccn2CC23CC(C(=O)N4N=CCC4c4cc(F)cc(F)c4)(C2)C3)c1` (stereo not shown) [Example 212, 1-((3-(5-(3,5-difluorophenyl)-4,5-dihydro-1H-pyrazole-1-carbonyl)bicyclo[1.1.1]pentan-1-yl)methyl)-1H-pyrrolo[2,3-b]pyridine-5-carbonitrile], the figures for the IC50 in assay [1] and in assay [2] were 19 nM and 11 nM, respectively.

As to `N#Cc1cc2cn(CC34CC(C(=O)N5N=CCC5c5cc(F)cc(F)c5)(C3)C4)nc2cn1` (stereo not shown) [Example 219, 2-((3-(5-(3,5-difluorophenyl)-4,5-dihydro-1H-pyrazole-1-carbonyl)bicyclo[1.1.1]pentan-1-yl)methyl)-2H-pyrazolo[3,4-c]pyridine-5-carbonitrile], the half-maximal inhibitory concentration (IC50) in assay [1] was 292 nM; in assay [2], 47 nM.

With `N#Cc1cccc(C2CC=NN2C(=O)C23CC(Cn4ncc5cc(C#N)ccc54)(C2)C3)c1` (stereo not shown) [Example 175, 1-((3-(5-(3-cyanophenyl)-4,5-dihydro-1H-pyrazole-1-carbonyl)bicyclo[1.1.1]-pentan-1-yl)methyl)-1H-indazole-5-carbonitrile], the IC50 in assay [1] came out at 47 nM; in assay [2] it was 16 nM.

Regarding `O=C(N1N=CCC1c1cc(F)cc(F)c1)C12CC(COc3cc(F)cnc3F)(C1)C2` (stereo not shown) [Example 328, (5-(3,5-difluorophenyl)-4,5-dihydro-1H-pyrazol-1-yl)(3-(((2,5-difluoropyridin-3-yl)-oxy)methyl)bicyclo[1.1.1]-pentan-1-yl)methanone], the IC50 in assay [1] was 409 nM; in assay [2] it was 116 nM.

In the case of `O=C(N1N=CCC1c1ccccc1)C12CC(Cn3ncc4ncccc43)(C1)C2` (stereo not shown) [Example 147, (3-((1H-pyrazolo[4,3-b]-pyridin-1-yl)methyl)-bicyclo[1.1.1]pentan-1-yl)(5-phenyl-4,5-dihydro-1H-pyrazol-1-yl)methanone], the IC50 in assay [1] amounted to 142 nM; in assay [2], 30 nM.

Consider `N#Cc1cccc2cn(CC34CC(C(=O)N5N=CCC5c5cc(F)cc(F)c5)(C3)C4)nc12` (stereo not shown) [Example 142, 2-((3-(5-(3,5-difluorophenyl)-4,5-dihydro-1H-pyrazole-1-carbonyl)bicyclo[1.1.1]pentan-1-yl)methyl)-2H-indazole-7-carbonitrile], for which the results for the IC50 in assay [1] and in assay [2] were 750 nM and 79 nM, respectively.

As for `N#Cc1cc(NCC23CC(C(=O)N4N=CCC4c4cc(F)cc(F)c4)(C2)C3)ncn1` (stereo not shown) [Example 12, 6-(((3-(5-(3,5-Difluorophenyl)-4,5-dihydro-1H-pyrazole-1-carbonyl)bicyclo[1.1.1]pentan-1-yl)methyl)amino)pyrimidine-4-carbonitrile], the results for the IC50 in assay [1] and in assay [2] were 887 nM and 243 nM, respectively.

In the case of `O=C(N1N=CCC1c1cc(F)cc(F)c1)C12CC(CCl)(C1)C2` (stereo not shown) [Example 11, (3-(Chloromethyl)bicyclo[1.1.1]pentan-1-yl)(5-(3,5-difluorophenyl)-4,5-dihydro-1H-pyrazol-1-yl)methanone], the IC50 is 18 nM in assay [1] and 20 nM in assay [2].
